Data taken from EPA's ToxValDB 9.5 (doi:10.2903/j.efsa.2014.3913).

Assays:
Folsomia candida = details: chronic/long-term
Chironomus tentans = details: chronic/long-term; duration: 28 days
Hypoaspis aculeifer = details: chronic/long-term
Rattus norvegicus = details: acute; mortality
Daphnia magna = details: chronic/long-term; duration: 21 days
Bibionidae = details: chronic/long-term; duration: 28 days
Oryctolagus sp. = details: reproduction developmental; organ weight
Colinus virginianus = details: for LD50: acute, oral, mortality
Apis mellifera = details: acute, mortality
Poephila guttata = details: acute; oral; unspecified; mortality
[1] = acute, duration: 96 hours, mortality
[2] = chronic/long-term, duration: 28 days

With `COC(=O)c1nc(-c2ccc(Cl)c(OC)c2F)cc(N)c1Cl` [Halauxifen-methyl] the NOEC (Folsomia candida) was 500 mg/kg, the LC50 (Tagia sp.; acute, duration: 14 days, mortality) was over 500 mg/kg and the NOEC (Tagia sp.; chronic/long-term, duration: 8 weeks) was 5 mg/kg. The NOEC (Chironomus tentans) was 89.3 mg/kg, the NOEC (Hypoaspis aculeifer) was 12.5 mg/kg and the LD50 (Rattus norvegicus) was over 5000 mg/kg. For the same compound, the NOEC (Daphnia magna) was 0.144 mg/L, the NOAEL (Anas platyrhynchos; reproductive, reproduction) was 160 mg/kg-day and the LD50 (Anas platyrhynchos; short-term, oral, feed, mortality) was over 2090 mg/kg-day. For the same compound, the NOEC (Bibionidae) was 1.26 mg/L, the NOAEL (Oryctolagus sp.) was 5.78 mg/kg-day and the LD50 (Colinus virginianus; diet) was over 1330 mg/kg-day. For the same compound, the LD50 (Colinus virginianus) was over 2250 mg/kg, the NOAEL (Colinus virginianus; reproduction developmental, reproduction) was 36.9 mg/kg-day and the LC50 (Cyprinodon variegatus; [1]) was over 1.33 µg/mL. The NOEC (Cyprinodon variegatus; [2]) was 0.0115 mg/L, the LD50 (Apis mellifera; dermal) was over 98.1 µg/piece and the LD50 (Apis mellifera; oral, unspecified) was over 108 µg/piece. It also gave an LC50 (Neomysis kadiakensis; [1]) of over 1.3 µg/mL, an NOEC (Neomysis kadiakensis; [2]) of 0.152 mg/L and an LD50 (Poephila guttata) of over 2250 mg/kg.
